Measurements published in ChEMBL document CHEMBL5724914, “Linking interpersonal differences in gut microbiota composition and drug biotransformation activity” (2024).

settings: human gut metagenome, 24 h, 2 µM
Also: call rule not given here.

| Compound | Bacterial Biotransformation |
| --- | --- |
| CC(C)N(CCC(C(N)=O)(c1ccccc1)c1ccccn1)C(C)C.O=P(O)(O)O (stereo not given) [DISOPYRAMIDE PHOSPHATE] | Compound NOT metabolized |
| CNC(=C[N+](=O)[O-])NCCSCc1ccc(CN(C)C)o1 [RANITIDINE] | Compound metabolized |
| COc1c(C)c2c(c(O)c1C/C=C(\C)CCC(=O)OCCN1CCOCC1)C(=O)OC2 [MYCOPHENOLATE MOFETIL] | Compound metabolized |
| CC(O)(CS(=O)(=O)c1ccc(F)cc1)C(=O)Nc1ccc(C#N)c(C(F)(F)F)c1 (stereo not given) [BICALUTAMIDE] | Compound NOT metabolized |
| CC(C)c1nc(CN(C)C(=O)N[C@H](C(=O)N[C@@H](Cc2ccccc2)C[C@H](O)[C@H](Cc2ccccc2)NC(=O)OCc2cncs2)C(C)C)cs1 [RITONAVIR] | Compound metabolized |

experiment: (§1) The drug is tested on WLS-006 corresponding to human gut metagenome with ENA study accession number: PRJEB37062 and ENA sample accession number: ERS12561741 for biotransformation under anaerobic condition. The drug concentrations were measured over 9 timepoints collected between 0 and 24 hours of incubation by liquid-chromatography-coupled mass spectrometry (LC–MS); settings: 2 µM

| Compound | Bacterial Biotransformation |
| --- | --- |
| CC(C)N(CCC(C(N)=O)(c1ccccc1)c1ccccn1)C(C)C.O=P(O)(O)O (stereo not given) [DISOPYRAMIDE PHOSPHATE] | Compound metabolized |
| CNC(=C[N+](=O)[O-])NCCSCc1ccc(CN(C)C)o1 [RANITIDINE] | Compound metabolized |
| COc1c(C)c2c(c(O)c1C/C=C(\C)CCC(=O)OCCN1CCOCC1)C(=O)OC2 [MYCOPHENOLATE MOFETIL] | Compound metabolized |
| CC(O)(CS(=O)(=O)c1ccc(F)cc1)C(=O)Nc1ccc(C#N)c(C(F)(F)F)c1 (stereo not given) [BICALUTAMIDE] | Compound NOT metabolized |
| CC(C)c1nc(CN(C)C(=O)N[C@H](C(=O)N[C@@H](Cc2ccccc2)C[C@H](O)[C@H](Cc2ccccc2)NC(=O)OCc2cncs2)C(C)C)cs1 [RITONAVIR] | Compound metabolized |

settings: human gut metagenome, 24 h, 2 µM; remark: another data set of the same source

| Compound | Bacterial Biotransformation |
| --- | --- |
| CC(C)N(CCC(C(N)=O)(c1ccccc1)c1ccccn1)C(C)C.O=P(O)(O)O (stereo not given) [DISOPYRAMIDE PHOSPHATE] | Compound NOT metabolized |
| CNC(=C[N+](=O)[O-])NCCSCc1ccc(CN(C)C)o1 [RANITIDINE] | Compound NOT metabolized |
| COc1c(C)c2c(c(O)c1C/C=C(\C)CCC(=O)OCCN1CCOCC1)C(=O)OC2 [MYCOPHENOLATE MOFETIL] | Compound metabolized |
| CC(O)(CS(=O)(=O)c1ccc(F)cc1)C(=O)Nc1ccc(C#N)c(C(F)(F)F)c1 (stereo not given) [BICALUTAMIDE] | Compound NOT metabolized |
| CC(C)c1nc(CN(C)C(=O)N[C@H](C(=O)N[C@@H](Cc2ccccc2)C[C@H](O)[C@H](Cc2ccccc2)NC(=O)OCc2cncs2)C(C)C)cs1 [RITONAVIR] | Compound metabolized |

settings: human gut metagenome, 24 h, 2 µM; remark: another data set of the same source

| Compound | Bacterial Biotransformation |
| --- | --- |
| CC(C)N(CCC(C(N)=O)(c1ccccc1)c1ccccn1)C(C)C.O=P(O)(O)O (stereo not given) [DISOPYRAMIDE PHOSPHATE] | Compound NOT metabolized |
| CNC(=C[N+](=O)[O-])NCCSCc1ccc(CN(C)C)o1 [RANITIDINE] | Compound NOT metabolized |
| COc1c(C)c2c(c(O)c1C/C=C(\C)CCC(=O)OCCN1CCOCC1)C(=O)OC2 [MYCOPHENOLATE MOFETIL] | Compound metabolized |
| CC(O)(CS(=O)(=O)c1ccc(F)cc1)C(=O)Nc1ccc(C#N)c(C(F)(F)F)c1 (stereo not given) [BICALUTAMIDE] | Compound NOT metabolized |
| CC(C)c1nc(CN(C)C(=O)N[C@H](C(=O)N[C@@H](Cc2ccccc2)C[C@H](O)[C@H](Cc2ccccc2)NC(=O)OCc2cncs2)C(C)C)cs1 [RITONAVIR] | Compound metabolized |

settings: human gut metagenome, 24 h, 2 µM; remark: another data set of the same source

| Compound | Bacterial Biotransformation |
| --- | --- |
| CC(C)N(CCC(C(N)=O)(c1ccccc1)c1ccccn1)C(C)C.O=P(O)(O)O (stereo not given) [DISOPYRAMIDE PHOSPHATE] | Compound metabolized |
| CNC(=C[N+](=O)[O-])NCCSCc1ccc(CN(C)C)o1 [RANITIDINE] | Compound NOT metabolized |
| COc1c(C)c2c(c(O)c1C/C=C(\C)CCC(=O)OCCN1CCOCC1)C(=O)OC2 [MYCOPHENOLATE MOFETIL] | Compound metabolized |
| CC(O)(CS(=O)(=O)c1ccc(F)cc1)C(=O)Nc1ccc(C#N)c(C(F)(F)F)c1 (stereo not given) [BICALUTAMIDE] | Compound NOT metabolized |
| CC(C)c1nc(CN(C)C(=O)N[C@H](C(=O)N[C@@H](Cc2ccccc2)C[C@H](O)[C@H](Cc2ccccc2)NC(=O)OCc2cncs2)C(C)C)cs1 [RITONAVIR] | Compound metabolized |

experiment: as §1, with “WLS-077” for “WLS-006”, “ERS12561750” for “ERS12561741”; settings: 2 µM

| Compound | Bacterial Biotransformation |
| --- | --- |
| CC(C)N(CCC(C(N)=O)(c1ccccc1)c1ccccn1)C(C)C.O=P(O)(O)O (stereo not given) [DISOPYRAMIDE PHOSPHATE] | Compound NOT metabolized |
| CNC(=C[N+](=O)[O-])NCCSCc1ccc(CN(C)C)o1 [RANITIDINE] | Compound NOT metabolized |
| COc1c(C)c2c(c(O)c1C/C=C(\C)CCC(=O)OCCN1CCOCC1)C(=O)OC2 [MYCOPHENOLATE MOFETIL] | Compound metabolized |
| CC(O)(CS(=O)(=O)c1ccc(F)cc1)C(=O)Nc1ccc(C#N)c(C(F)(F)F)c1 (stereo not given) [BICALUTAMIDE] | Compound NOT metabolized |
| CC(C)c1nc(CN(C)C(=O)N[C@H](C(=O)N[C@@H](Cc2ccccc2)C[C@H](O)[C@H](Cc2ccccc2)NC(=O)OCc2cncs2)C(C)C)cs1 [RITONAVIR] | Compound metabolized |

settings: human gut metagenome, 24 h, 2 µM; remark: another data set of the same source

| Compound | Bacterial Biotransformation |
| --- | --- |
| CC(C)N(CCC(C(N)=O)(c1ccccc1)c1ccccn1)C(C)C.O=P(O)(O)O (stereo not given) [DISOPYRAMIDE PHOSPHATE] | Compound NOT metabolized |
| CNC(=C[N+](=O)[O-])NCCSCc1ccc(CN(C)C)o1 [RANITIDINE] | Compound metabolized |
| COc1c(C)c2c(c(O)c1C/C=C(\C)CCC(=O)OCCN1CCOCC1)C(=O)OC2 [MYCOPHENOLATE MOFETIL] | Compound metabolized |
| CC(O)(CS(=O)(=O)c1ccc(F)cc1)C(=O)Nc1ccc(C#N)c(C(F)(F)F)c1 (stereo not given) [BICALUTAMIDE] | Compound NOT metabolized |
| CC(C)c1nc(CN(C)C(=O)N[C@H](C(=O)N[C@@H](Cc2ccccc2)C[C@H](O)[C@H](Cc2ccccc2)NC(=O)OCc2cncs2)C(C)C)cs1 [RITONAVIR] | Compound metabolized |

experiment: as §1, with “Z-009” for “WLS-006”, “pig” for “human”, “ERS12561809” for “ERS12561741”; settings: 2 µM

| Compound | Bacterial Biotransformation |
| --- | --- |
| CC(C)N(CCC(C(N)=O)(c1ccccc1)c1ccccn1)C(C)C.O=P(O)(O)O (stereo not given) [DISOPYRAMIDE PHOSPHATE] | Compound NOT metabolized |
| CNC(=C[N+](=O)[O-])NCCSCc1ccc(CN(C)C)o1 [RANITIDINE] | Compound metabolized |
| COc1c(C)c2c(c(O)c1C/C=C(\C)CCC(=O)OCCN1CCOCC1)C(=O)OC2 [MYCOPHENOLATE MOFETIL] | Compound metabolized |
| CC(O)(CS(=O)(=O)c1ccc(F)cc1)C(=O)Nc1ccc(C#N)c(C(F)(F)F)c1 (stereo not given) [BICALUTAMIDE] | Compound NOT metabolized |
| CC(C)c1nc(CN(C)C(=O)N[C@H](C(=O)N[C@@H](Cc2ccccc2)C[C@H](O)[C@H](Cc2ccccc2)NC(=O)OCc2cncs2)C(C)C)cs1 [RITONAVIR] | Compound metabolized |

experiment: as §1, with “WLS-069” for “WLS-006”, “ERS12561748” for “ERS12561741”; settings: 2 µM

| Compound | Bacterial Biotransformation |
| --- | --- |
| CC(C)N(CCC(C(N)=O)(c1ccccc1)c1ccccn1)C(C)C.O=P(O)(O)O (stereo not given) [DISOPYRAMIDE PHOSPHATE] | Compound NOT metabolized |
| CNC(=C[N+](=O)[O-])NCCSCc1ccc(CN(C)C)o1 [RANITIDINE] | Compound metabolized |
| COc1c(C)c2c(c(O)c1C/C=C(\C)CCC(=O)OCCN1CCOCC1)C(=O)OC2 [MYCOPHENOLATE MOFETIL] | Compound metabolized |
| CC(O)(CS(=O)(=O)c1ccc(F)cc1)C(=O)Nc1ccc(C#N)c(C(F)(F)F)c1 (stereo not given) [BICALUTAMIDE] | Compound NOT metabolized |
| CC(C)c1nc(CN(C)C(=O)N[C@H](C(=O)N[C@@H](Cc2ccccc2)C[C@H](O)[C@H](Cc2ccccc2)NC(=O)OCc2cncs2)C(C)C)cs1 [RITONAVIR] | Compound metabolized |
